Crystal structure and Kd data for 2 compounds are collected here from article PMC10415124 (Nucleic Acids Research, 2023).

Type in all cases: binding
Test [1] has as its target T1, HsTRPT1 (tRNA 2′-phosphotransferase 1) (Homo sapiens, UniProt Q86TN4).
T1 sequence (Q86TN4 1-253): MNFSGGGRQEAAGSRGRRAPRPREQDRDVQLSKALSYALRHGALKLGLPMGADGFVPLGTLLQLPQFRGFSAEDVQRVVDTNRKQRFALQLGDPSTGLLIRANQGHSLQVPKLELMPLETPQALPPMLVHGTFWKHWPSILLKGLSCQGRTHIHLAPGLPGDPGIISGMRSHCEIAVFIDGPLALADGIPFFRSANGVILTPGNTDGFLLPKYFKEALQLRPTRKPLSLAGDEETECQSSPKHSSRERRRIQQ
Briefly: crystal structure.

Test [2] concerns the target T2, MmTRPT1 (tRNA 2′-phosphotransferase 1) (Mus musculus, UniProt Q8K3A2).
T2 sequence (Q8K3A2 1-249): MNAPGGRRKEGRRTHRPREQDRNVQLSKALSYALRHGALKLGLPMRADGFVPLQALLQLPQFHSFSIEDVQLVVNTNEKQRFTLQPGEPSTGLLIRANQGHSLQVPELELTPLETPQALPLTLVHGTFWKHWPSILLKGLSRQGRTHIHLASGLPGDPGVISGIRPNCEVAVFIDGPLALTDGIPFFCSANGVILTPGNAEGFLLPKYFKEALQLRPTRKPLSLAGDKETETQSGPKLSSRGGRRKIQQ
Briefly: crystal structure.

Test [3] concerns the target T1, HsTRPT1 (tRNA 2′-phosphotransferase 1). Kind of test: ITC. (In general: In ITC the heat of successive injections is recorded.)
Test [4] concerns the target T3, ScTRPT1 (TPT1, tRNA 2′-phosphotransferase) (Saccharomyces cerevisiae, UniProt Q12272).
T3 sequence (Q12272 1-230): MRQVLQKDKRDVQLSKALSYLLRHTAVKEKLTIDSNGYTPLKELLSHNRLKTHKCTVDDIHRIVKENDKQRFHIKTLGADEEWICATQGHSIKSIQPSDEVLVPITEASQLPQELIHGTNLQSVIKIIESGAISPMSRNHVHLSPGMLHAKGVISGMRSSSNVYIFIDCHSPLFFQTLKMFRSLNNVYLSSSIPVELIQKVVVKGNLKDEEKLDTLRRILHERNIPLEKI
Briefly: ITC and co-crystal structure.

Test [5] concerns the target T2, MmTRPT1 (tRNA 2′-phosphotransferase 1). Briefly: ITC.

In the case of `Nc1ncnc2c1ncn2[C@@H]1O[C@H](COP(=O)(O)OP(=O)(O)OC[C@H]2O[C@H](OP(=O)(O)O)[C@H](O)[C@@H]2O)[C@@H](O)[C@H]1O` [ADPRp], the crystal structure result in test [1] is on record as “electron density map clearly showed that one ADPRp molecule”; in test [2] it was “binds to the HsTRPT1/MmTRPT1 monomer”.

As a reminder, the Kd is the free concentration of one partner at which half of the binding sites on the other are occupied at equilibrium, for simple one-to-one binding. Read a low Kd as a tighter complex. As for `NC(=O)c1ccc[n+]([C@@H]2O[C@H](COP(=O)([O-])OP(=O)(O)OC[C@H]3O[C@@H](n4cnc5c(N)ncnc54)[C@H](O)[C@@H]3O)[C@@H](O)[C@H]2O)c1` [NAD^+], the figures for the Kd in test [3], in test [4] and in test [5] were 11.8 ± 0.32 µM, 23.8 ± 1.88 µM and 22.3 ± 0.75 µM, respectively.
